# From ChEMBL document CHEMBL5625208, “Tumor selective self-assembled nanomicelles of carbohydrate-epothilone B conjugate for targeted chemotherapy” (Eur J Med Chem, 2023)
# The source made the active and inactive calls. The rule behind the calls is not given here.
# Experiments:
# HepG2 = experiment: Antiproliferative activity against human HepG2 cells assessed as reduction in cell viability after 72 hrs by MTT assay; type: functional, cell-based
# NCI-H460 = experiment: Antiproliferative activity against human NCI-H460 cells assessed as reduction in cell viability after 72 hrs by MTT assay; type: functional, cell-based
# MCF7 [1] = experiment: Antiproliferative activity against human MCF7 cells assessed as reduction in cell viability after 72 hrs by MTT assay; type: functional, cell-based
# NCI-460/Taxol = experiment: Antiproliferative activity against human NCI-460/taxol cells assessed as reduction in cell viability after 72 hrs by MTT assay; type: functional, cell-based
# L02 = experiment: Cytotoxicity against human HL7702 cells incubated for 72 hrs by MTT assay; type: toxicity, cell-based; settings: l02, 72 h
# BEAS-2B = experiment: Cytotoxicity against human BEAS-2B cells incubated for 72 hrs by MTT assay; type: toxicity, cell-based
# MCF7 [2] = experiment: Antiproliferative activity against human MCF7 cells assessed as reduction in cell viability preincubated for with NEM for 1 hr followed by compound addition by xCELLigence real time analysis; type: functional, cell-based
# MCF7 [3] = experiment: Antiproliferative activity against human MCF7 cells assessed as reduction in cell viability at 1 to 1000 nM preincubated for with NEM for 1 hr followed by compound addition and measured after 72 hrs by MTT assay; type: functional, cell-based; settings: dose 1-1000 nM
# MCF7 [4] = experiment: Antiproliferative activity against human MCF7 cells assessed as reduction in cell viability at 1 to 1000 nM preincubated for with rhamnose for 1 hr followed by compound addition and measured after 72 hrs by MTT assay; type: functional, cell-based; settings: dose 1-1000 nM
# [5] = Stability in mouse plasma; type: ADME, cell-free
# MCF7 [6] = experiment: Antitumor activity against human MCF7 cells xenografted in mouse assessed as reduction in tumor growth at 3.2 to 6.4 mg/kg, ip administered every 3 days for 3 times and measured after 14 days; type: functional, organism-based; settings: dose 3.2-6.4 mg/kg, time 14.0 day
# MCF7 [7] = experiment: Antitumor activity against human MCF7 cells xenografted in mouse assessed as reduction in tumor weight at 3.2 to 6.4 mg/kg, ip administered every 3 days for 3 times and measured after 14 days; type: functional, organism-based; settings: dose 3.2-6.4 mg/kg, time 14.0 day
# [8] = Toxicity in mouse xenografted with human MCF7 cells assessed as reduction in body weight at 3 mg/kg, ip administered every 3 days for 3 times and measured after 14 days; type: organism-based; settings: in vivo, 336 h, time 14 day
# [9] = Toxicity in mouse xenografted with human MCF7 cells at 3 mg/kg, ip administered every 3 days for 3 times and measured after 14 days; type: organism-based; settings: in vivo, 336 h, time 14 day
# [10] = Toxicity in mouse xenografted with human MCF7 cells assessed as animal death at 3.2 mg/kg, ip administered every 3 days for 3 times and measured after 14 days; type: organism-based; settings: in vivo, 336 h, time 14 day
# [11] = Toxicity in mouse xenografted with human MCF7 cells assessed as change in body weight at 3.2 mg/kg, ip administered every 3 days for 3 times and measured after 14 days; type: organism-based; settings: in vivo, 336 h, time 14 day
# MCF7 [12] = experiment: Antitumor activity against human MCF7 cells xenografted in mouse assessed as appearance of intracellular space dilatation in tumor cells at 3.2 to 6.4 mg/kg, ip administered every 3 days for 3 times measured after 14 days by H and E staining based assay; type: functional, organism-based; settings: dose 3.2-6.4 mg/kg, time 14.0 day
# MCF7 [13] = experiment: Antitumor activity against human MCF7 cells xenografted in mouse assessed as appearance of small cavities in tumor cells at 3.2 to 6.4 mg/kg, ip administered every 3 days for 3 times measured after 14 days by H and E staining based assay; type: functional, organism-based; settings: dose 3.2-6.4 mg/kg, time 14.0 day
# MCF7 [14] = experiment: Antitumor activity against human MCF7 cells xenografted in mouse assessed as reduction in PCNA positive cells at 3.2 to 6.4 mg/kg, ip administered every 3 days for 3 times measured after 14 days by H and E staining based assay; type: functional, organism-based; settings: dose 3.2-6.4 mg/kg, time 14.0 day
# [15] = Toxicity in mouse xenografted with human MCF7 cells assessed as spleen damage at 3.2 mg/kg, ip administered every 3 days for 3 times and measured after 14 days; type: organism-based; settings: in vivo, 336 h, time 14 day
# [16] = Toxicity in mouse xenografted with human MCF7 cells assessed as kidney damage at 3.2 mg/kg, ip administered every 3 days for 3 times and measured after 14 days; type: organism-based; settings: in vivo, 336 h, time 14 day
# [17] = Prodrug release in DTT at pH 7.4 after 12 hrs by HPLC analysis; type: ADME; settings: pH 7.4, 12 h
# [18] = Prodrug release in DTT at pH 7.4 assessed as Epothilone B release after 12 hrs by HPLC analysis; type: ADME; settings: pH 7.4, 12 h
# [19] = Prodrug release in PBS at pH 7.4 assessed as Epothilone B release in presence of different concentrations of DTT by HPLC analysis; type: ADME; settings: buffer
# [20] = Toxicity in mouse xenografted with human MCF7 cells assessed as animal death at 3 mg/kg, ip administered every 3 days for 3 times and measured on day 8; type: organism-based; settings: in vivo, 192 h, time 8 day
# MCF7 [21] = experiment: Antitumor activity against human MCF7 cells xenografted in mouse assessed as appearance of intracellular space dilatation in tumor cells at 1.5 to 3 mg/kg, ip administered every 3 days for 3 times measured after 14 days by H and E staining based assay; type: functional, organism-based; settings: dose 1.5-3 mg/kg, time 14.0 day
# MCF7 [22] = experiment: Antitumor activity against human MCF7 cells xenografted in mouse assessed as appearance of small cavities in tumor cells at 1.5 to 3 mg/kg, ip administered every 3 days for 3 times measured after 14 days by H and E staining based assay; type: functional, organism-based; settings: dose 1.5-3 mg/kg, time 14.0 day
# MCF7 [23] = experiment: Antitumor activity against human MCF7 cells xenografted in mouse assessed as reduction in PCNA positive cells at 1.5 to 3 mg/kg, ip administered every 3 days for 3 times measured after 14 days by H and E staining based assay; type: functional, organism-based; settings: dose 1.5-3 mg/kg, time 14.0 day
structure (smiles),measurement,setting,value
C/C(=C\c1csc(C)n1)[C@@H]1C[C@@H]2O[C@]2(C)CCC[C@H](C)[C@H](OC(=O)OCCSSCCOCc2cn(CCOCCOCCOCCO[C@@H]3O[C@H](CO)[C@@H](O[C@@H]4O[C@@H](C)[C@H](O)[C@@H](O)[C@H]4O)[C@H](O)[C@H]3O[C@@H]3O[C@@H](C)[C@H](O)[C@@H](O)[C@H]3O)nn2)[C@@H](C)C(=O)C(C)(C)[C@@H](O)CC(=O)O1,Activity,HepG2,Active
same,Activity,NCI-H460,Active
same,Activity,MCF7 [1],Active
same,Activity,NCI-460/Taxol,Active
C/C(=C\c1csc(C)n1)[C@@H]1C[C@@H]2O[C@]2(C)CCC[C@H](C)[C@H](OC(=O)OCCSSCCOCc2cn(CCOCCOCCOCCO[C@@H]3O[C@@H](C)[C@H](O)[C@@H](O)[C@H]3O)nn2)[C@@H](C)C(=O)C(C)(C)[C@@H](O)CC(=O)O1,Activity,HepG2,Active
same,Activity,NCI-H460,Active
same,Activity,MCF7 [1],Active
same,Activity,NCI-460/Taxol,Active
same,Activity,L02,Non-Toxic
same,Activity,BEAS-2B,Non-Toxic
same,Activity,MCF7 [2],inactive
same,Activity,MCF7 [3],inactive
same,Activity,MCF7 [4],inactive
same,Stability,[5],Stable
same,Activity,MCF7 [6],Active
same,Activity,MCF7 [7],Active
same,Activity,[8],Non-Toxic
same,Activity,[9],Non-Toxic
same,Activity,[10],Non-Toxic
same,Activity,[11],Non-Toxic
same,Activity,MCF7 [12],Active
same,Activity,MCF7 [13],Active
same,Activity,MCF7 [14],Active
same,Activity,[15],Non-Toxic
same,Activity,[16],Non-Toxic
same,Drug metabolism,[17],Active
same,Drug metabolism,[18],Active
same,Drug metabolism,[19],Not Active
C/C(=C\c1csc(C)n1)[C@@H]1C[C@@H]2O[C@]2(C)CCC[C@H](C)[C@H](OC(=O)Cc2ccccc2SSCCC(=O)NCc2cn(CCOCCOCCOCCO[C@@H]3O[C@@H](C)[C@H](O)[C@@H](O)[C@H]3O)nn2)[C@@H](C)C(=O)C(C)(C)[C@@H](O)CC(=O)O1,Drug metabolism,[17],Active
same,Drug metabolism,[18],Not Active
C/C(=C\c1csc(C)n1)[C@@H]1C[C@@H]2O[C@]2(C)CCC[C@H](C)[C@H](O)[C@@H](C)C(=O)C(C)(C)[C@@H](O)CC(=O)O1 [PATUPILONE],Activity,MCF7 [3],Active
same,Activity,[8],Toxic
same,Activity,[20],Toxic
same,Activity,MCF7 [21],Active
same,Activity,MCF7 [22],Active
same,Activity,MCF7 [23],Active
